This is an account of results in patent publication US10851067B2, “Kv7 channel activators compositions and methods of use” (Knopp Biosciences LLC, priority 2018, dated 2020).

pEC50: −log10 of the molar value. Bounds are passed on as bounds.

This test concerns the target Kv7.2/7.3 (Homo sapiens, UniProt O43525+O43526). Kind of test: Kv7.2/7.3 Thallium Flux Assay. The test is classed as cell-based. Also on record: host or cells: HEK cells, tetracycline-inducible expression. The settings on record: read-out: Kv7.2/7.3 Activity: EC50 of Kv7.2/Kv7.3 activation. An excerpt:
The Thallium Flux Assay is used as a surrogate indicator of potassium channel activity.
The experimental protocol was adapted from the FluxOR™ II Green Potassium Ion Channel Assay User Guide (Pub. No. MAN0016084, Invitrogen). Conditions were optimized for the Kv7.2/7.3 cell line.
The hKV7.2/7.3 cell line was obtained from Chantest (Cleveland, Ohio 44128) cat. #CT6147.
Kv7.2/7.3 cells were maintained in a media containing DMEM/F12; 50/50 (GIBCO cat. #11330), 10% Fetal Bovine Serum (FBS) (GIBCO cat. #26140), 100 units/mL Penicillin-Streptomycin (GIBCO cat. #15140), 0.005 mg/ml Blasticidin (SIGMA 15205), 0.5 mg/mL Geneticin (GIBCO cat. #10131), and 0.1 mg/mL Zeocin (GIBCO cat. #R25001). One day prior to experimentation, cells were plated in 96 well clear bottom plates (Corning cat. #353219) in a media without Blasticidin, Geneticin, or Zeocin. Channel expression was induced by adding tetracycline (Bioline cat. #BIO87030) at a final concentration of 10 ng/mL.
The test compound is diluted in a mixture of 0.1% DMSO/extracellular solution with an eight-point concentration range from 0.014 μM to 30 μM. Serial dilutions were made on a Biomek NXP (BECKMAN COULTER).
Measurement and Data Analysis:
A plate reader (Enspire, Perkin Elmer) is used to characterize the ion-channel modulating properties of novel compounds using an excitation wavelength of 475 nm and an emission wavelength of 530 nm. After a 15 sec baseline measurement, the stimulus buffer containing thallium and potassium is injected. A final endpoint measure is taken after 90 sec. Responses are normalized to positive control (retigabine, 30 µM max). Mean normalized responses at each concentration tested are fit to the standard Hill equation to generate an EC50 and maximal response.

With `CC1(n2c(NC(=O)CC3CC(F)(F)C3(F)F)nc3ccc(C#N)c(OC(F)(F)F)c32)CCC1` (single isomer, unassigned) [Example 493, N-(6-cyano-1-(1-methylcyclobutyl)-7-(trifluoromethoxy)-1H-benzo[d]imidazol-2-yl)-2-(2,2,3,3-tetrafluorocyclobutyl)acetamide], the pEC50 is > 6.00.
In the case of `CC1(n2c(NC(=O)CC3CC(F)(F)C3(F)F)nc3cc(F)ccc32)CCC1` (single isomer, unassigned) [Example 526, N-(5-fluoro-1-(1-methylcyclobutyl)-1H-benzo[d]imidazol-2-yl)-2-(2,2,3,3-tetrafluorocyclobutyl)acetamide] it was > 6.00.
On to `CC1(n2c(NC(=O)CC3CC(F)(F)C3(F)F)nc3ccc(F)c(F)c32)CCC1` (single isomer, unassigned) [Example 513, N-(6,7-difluoro-1-(1-methylcyclobutyl)-1H-benzo[d]imidazol-2-yl)-2-(2,2,3,3-tetrafluorocyclobutyl)acetamide], for which the pEC50 is > 6.00.
The result for `CC1(n2c(NC(=O)CC(C)(C)C(F)(F)F)nc3c(F)cc(C#N)cc32)CCC1` [Example 486, N-(6-cyano-4-fluoro-1-(1-methylcyclobutyl)-1H-benzo[d]imidazol-2-yl)-4,4,4-trifluoro-3,3-dimethylbutanamide] reads > 6.00.
The result for `CC(C)(O)c1cc(F)c2nc(NC(=O)CC3CC(F)(F)C3(F)F)n(C3(C)CCC3)c2c1` (single isomer, unassigned) [Example 519, N-(4-fluoro-6-(2-hydroxypropan-2-yl)-1-(1-methylcyclobutyl)-1H-benzo[d]imidazol-2-yl)-2-(2,2,3,3-tetrafluorocyclobutyl)acetamide] reads > 6.00.
The result for `CC(C)(CC(=O)Nc1nc2ccc(C#N)cc2n1C1CCC1)c1ccccn1` [Example 518, N-(6-cyano-1-cyclobutyl-1H-benzo[d]imidazol-2-yl)-3-methyl-3-(pyridin-2-yl)butanamide] reads 5.52 to 6.00; that for `CC(C)(C)n1c(NC(=O)CC2CC(F)(F)C2(F)F)nc2cc(F)c(Cl)cc21` (single isomer, unassigned) [Example 535, N-(1-(tert-butyl)-6-chloro-5-fluoro-1H-benzo[d]imidazol-2-yl)-2-(2,2,3,3-tetrafluorocyclobutyl)acetamide], > 6.00; that for `CC(C)(C)n1c(NC(=O)CC2CC(F)(F)C2(F)F)nc2cc(F)ccc21` (single isomer, unassigned) [Example 528, N-(1-(tert-butyl)-5-fluoro-1H-benzo[d]imidazol-2-yl)-2-(2,2,3,3-tetrafluorocyclobutyl)acetamide], > 6.00.
Consider `CC(C(=O)Nc1nc2ccc(Cl)c(F)c2n1C1(C)CCC1)C1(C(F)(F)F)CC1` (single isomer, unassigned) [Example 556, N-(6-chloro-7-fluoro-1-(1-methylcyclobutyl)-1H-benzo[d]imidazol-2-yl)-2-(1-(trifluoromethyl)cyclopropyl)propanamide], for which the pEC50 is > 6.00.
In the case of `CC(C)(C)n1c(NC(=O)CC2CC(F)(F)C2(F)F)nc2ccc(F)c(F)c21` (single isomer, unassigned) [Example 509, N-(1-(tert-butyl)-6,7-difluoro-1H-benzo[d]imidazol-2-yl)-2-(2,2,3,3-tetrafluorocyclobutyl)acetamide] it was > 6.00.
The result for `CC(C(=O)Nc1nc2c(F)cc(C#N)cc2n1C1(C)CCC1)C1(C(F)(F)F)CC1` (single isomer, unassigned) [Example 503, N-(6-cyano-4-fluoro-1-(1-methylcyclobutyl)-1H-benzo[d]imidazol-2-yl)-2-(1-(trifluoromethyl)cyclopropyl)propanamide] reads > 6.00.
In the case of `CC(C)(C)CC(=O)Nc1nc2c(F)cc(C#N)cc2n1C1(C)CCC1` [Example 495, N-(6-cyano-4-fluoro-1-(1-methylcyclobutyl)-1H-benzo[d]imidazol-2-yl)-3,3-dimethylbutanamide] it was > 6.00.
Consider `CC(C)(C)CC(=O)Nc1nc2ccc(C#N)c(C(F)(F)F)c2n1C1CCC1` [Example 507, N-(6-cyano-1-cyclobutyl-7-(trifluoromethyl)-1H-benzo[d]imidazol-2-yl)-3,3-dimethylbutanamide], for which the pEC50 is > 6.00.
The result for `CC(C)(C)n1c(NC(=O)CC2CC(F)(F)C2(F)F)nc2cc(F)cc(F)c21` (single isomer, unassigned) [Example 532, N-(1-(tert-butyl)-5,7-difluoro-1H-benzo[d]imidazol-2-yl)-2-(2,2,3,3-tetrafluorocyclobutyl)acetamide] reads > 6.00; that for `CC(C)(C)CC(=O)Nc1nc2c(F)cc(C#N)c(F)c2n1C1(C)CCC1` [Example 517, N-(6-cyano-4,7-difluoro-1-(1-methylcyclobutyl)-1H-benzo[d]imidazol-2-yl)-3,3-dimethylbutanamide], > 6.00.
As to `CC1(n2c(NC(=O)CC3CC(F)(F)C3(F)F)nc3cc(F)c(F)cc32)CCC1` (single isomer, unassigned) [Example 499, N-(5,6-difluoro-1-(1-methylcyclobutyl)-1H-benzo[d]imidazol-2-yl)-2-(2,2,3,3-tetrafluorocyclobutyl)acetamide], the pEC50 was > 6.00.
The result for `CC1(n2c(NC(=O)CC3CC(F)(F)C3(F)F)nc3cc(F)c(F)c(F)c32)CCC1` (single isomer, unassigned) [Example 559, 2-(2,2,3,3-tetrafluorocyclobutyl)-N-(5,6,7-trifluoro-1-(1-methylcyclobutyl)-1H-benzo[d]imidazol-2-yl)acetamide] reads > 6.00; that for `CC1(n2c(NC(=O)CC3(C(F)(F)F)CC3)nc3cc(F)c(F)cc32)CCC1` [Example 538, N-(5,6-difluoro-1-(1-methylcyclobutyl)-1H-benzo[d]imidazol-2-yl)-2-(1-(trifluoromethyl)cyclopropyl)acetamide], > 6.00; that for `CC(C)(C)CC(=O)Nc1nc2ccc(C(C)(C)O)c(OC(F)(F)F)c2n1C1CCC1` [Example 501, N-(1-cyclobutyl-6-(2-hydroxypropan-2-yl)-7-(trifluoromethoxy)-1H-benzo[d]imidazol-2-yl)-3,3-dimethylbutanamide], 5.52 to 6.00.
The result for `N#Cc1ccc2nc(NC(=O)CC3CC(F)(F)C3(F)F)n(-c3ccc(F)cc3)c2c1` (single isomer, unassigned) [Example 551, N-(6-cyano-1-(4-fluorophenyl)-1H-benzo[d]imidazol-2-yl)-2-(2,2,3,3-tetrafluorocyclobutyl)acetamide] reads > 6.00; that for `CC(C)(n1c(NC(=O)CC2CC(F)(F)C2(F)F)nc2ccc(C#N)cc21)C(F)(F)F` (single isomer, unassigned) [Example 488, N-(6-cyano-1-(1,1,1-trifluoro-2-methylpropan-2-yl)-1H-benzo[d]imidazol-2-yl)-2-(2,2,3,3-tetrafluorocyclobutyl)acetamide], > 6.00.
In the case of `CC(C)(O)c1cc(F)c2nc(NC(=O)C3(CC(F)F)CC3)n(C3CCC3)c2c1` [Example 502, N-(1-cyclobutyl-4-fluoro-6-(2-hydroxypropan-2-yl)-1H-benzo[d]imidazol-2-yl)-1-(2,2-difluoroethyl)cyclopropane-1-carboxamide] it was 5.00 to 5.52.
